Results as given in ChEMBL document CHEMBL1201862, “PubChem BioAssay data set” (2004).
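Step 1: Grow cells in 96-well plates. Step 2: Expose to compound for 48 hours at 5 concentrations. Step 3: Interpolate endpoints linearly; if unreached, use highest concentration. GI50: concentration for 50% inhibition of growth.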 The source made the active and inactive calls. Rule as the data show it: active = GI50 up to about 1.1 µM and inactive = higher.

Experiments:
Experiment in all cases: inhibition of tumour cell growth, NCI panel, 48 h
CCRF-CEM = system: CCRF-CEM
COLO 205 = system: COLO 205
HOP-92 = system: HOP-92
K562 = system: K562
MCF7 = system: MCF7
Malme-3M = system: Malme-3M
NCI-H23 = system: NCI-H23
NCI-H460 = system: NCI-H460
OVCAR-3 = system: OVCAR-3
OVCAR-5 = system: OVCAR-5
OVCAR-8 = system: OVCAR-8
PC-3 = system: PC-3
RPMI-8226 = system: RPMI-8226
SNB-19 = system: SNB-19
SW-620 = system: SW-620
T47D = system: T47D
TK-10 = system: TK-10
U-251 = system: U-251
UACC-257 = system: UACC-257
UO-31 = system: UO-31

| SMILES | GI50 (CCRF-CEM) | GI50 (COLO 205) | GI50 (HOP-92) | GI50 (K562) | GI50 (MCF7) | GI50 (Malme-3M) | GI50 (NCI-H23) | GI50 (NCI-H460) | GI50 (OVCAR-3) | GI50 (OVCAR-5) | GI50 (OVCAR-8) | GI50 (PC-3) | GI50 (RPMI-8226) | GI50 (SNB-19) | GI50 (SW-620) | GI50 (T47D) | GI50 (TK-10) | GI50 (U-251) | GI50 (UACC-257) | GI50 (UO-31) |
| --- | --- | --- | --- | --- | --- | --- | --- | --- | --- | --- | --- | --- | --- | --- | --- | --- | --- | --- | --- | --- |
| CCOC(=O)c1csc(NC(=O)CCN2CCOCC2)n1 | 29.6 µM (inactive) | 52.7 µM (inactive) | 69.3 µM (inactive) | 74.8 µM (inactive) | 43.8 µM (inactive) | 19.3 µM (inactive) | > 100 µM (inactive) | > 100 µM (inactive) | 39.6 µM (inactive) | > 100 µM (inactive) | 29.8 µM (inactive) | 67.6 µM (inactive) | 43.3 µM (inactive) | > 100 µM (inactive) | 49.1 µM (inactive) | > 100 µM (inactive) | 39.9 µM (inactive) | > 100 µM (inactive) | 92.9 µM (inactive) | 78.5 µM (inactive) |
| Cc1cnc2c(c1)C(=O)N(c1ccc(Oc3ccccc3)cc1)S2(=O)=O | > 100 µM (inactive) | > 100 µM (inactive) | > 100 µM (inactive) | > 100 µM (inactive) | > 100 µM (inactive) | 67.1 µM (inactive) | > 100 µM (inactive) | > 100 µM (inactive) | > 100 µM (inactive) | > 100 µM (inactive) | > 100 µM (inactive) | > 100 µM (inactive) | > 100 µM (inactive) | > 100 µM (inactive) | > 100 µM (inactive) | > 100 µM (inactive) | > 100 µM (inactive) | > 100 µM (inactive) | > 100 µM (inactive) | > 100 µM (inactive) |
| COc1c(Cl)c(=O)oc2ccc(Cl)cc12 | > 100 µM (inactive) | > 100 µM (inactive) | 25.2 µM (inactive) | > 100 µM (inactive) | > 100 µM (inactive) | > 100 µM (inactive) | > 100 µM (inactive) | > 100 µM (inactive) | > 100 µM (inactive) | > 100 µM (inactive) | > 100 µM (inactive) | > 100 µM (inactive) | > 100 µM (inactive) | > 100 µM (inactive) | > 100 µM (inactive) | > 100 µM (inactive) | > 100 µM (inactive) | 60.7 µM (inactive) | > 100 µM (inactive) | > 100 µM (inactive) |
| CCOC(=O)CC(C)C(C#N)(OP1(=O)OC(c2ccccc2)C(C)N1C)c1ccccc1 (stereo not given) | 29.9 µM (inactive) | 18.5 µM (inactive) | 17.8 µM (inactive) | 32.1 µM (inactive) | 37.8 µM (inactive) | 85.1 µM (inactive) | 66.1 µM (inactive) | 47.4 µM (inactive) | 50.7 µM (inactive) | > 100 µM (inactive) | 46.1 µM (inactive) | 33.6 µM (inactive) | 36.3 µM (inactive) | 99.1 µM (inactive) | 54.7 µM (inactive) | 30.5 µM (inactive) | 68.7 µM (inactive) | 49 µM (inactive) | 41.3 µM (inactive) | 35.4 µM (inactive) |
| CC[C@@]1(O)C(=O)OCc2c1cc1n(c2=O)Cc2c-1nc1ccccc1c2/C=N\NC(=O)C(N)CCSC (stereo not given in full) | < 0.01 µM (active) | 1.24 µM (inactive) | 0.0863 µM (active) | 0.0109 µM (active) | < 0.01 µM (active) | 0.102 µM (active) | < 0.01 µM (active) | < 0.01 µM (active) | 0.352 µM (active) | 0.774 µM (active) | < 0.0119 µM (active) | 0.13 µM (active) | < 0.0282 µM (active) | < 0.01 µM (active) | 0.0883 µM (active) | < 0.01 µM (active) | 6.4 µM (inactive) | < 0.01 µM (active) | 0.228 µM (active) | < 0.0104 µM (active) |
| c1ccc(N2N=C3N(c4ccccc4)C2N3c2ccccc2)cc1 | 20.7 µM (inactive) | 19.5 µM (inactive) | 14.1 µM (inactive) | 14.7 µM (inactive) | 31.9 µM (inactive) | 17.5 µM (inactive) | 37.9 µM (inactive) | 31.1 µM (inactive) | 36.6 µM (inactive) | 71.9 µM (inactive) | 35.9 µM (inactive) | 44.5 µM (inactive) | 15.7 µM (inactive) | 87.1 µM (inactive) | 33.4 µM (inactive) | 52.4 µM (inactive) | 71.3 µM (inactive) | 46.8 µM (inactive) | 23.1 µM (inactive) | 58.9 µM (inactive) |
| Cc1cc(=O)oc2cc(O)ccc12 [HYMECROMONE] | > 100 µM (inactive) | > 100 µM (inactive) | 79.8 µM (inactive) | > 100 µM (inactive) | > 100 µM (inactive) | > 100 µM (inactive) | > 100 µM (inactive) | > 100 µM (inactive) | > 100 µM (inactive) | > 100 µM (inactive) | > 100 µM (inactive) | > 100 µM (inactive) | > 100 µM (inactive) | > 100 µM (inactive) | > 100 µM (inactive) | > 100 µM (inactive) | > 100 µM (inactive) | > 100 µM (inactive) | > 100 µM (inactive) | > 100 µM (inactive) |
